From PubChem BioAssay AID179 (DTP/NCI, 2004)
Calls of active or inactive are those of the source.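 How the source made its calls: active means compounds giving half or more protection of infected cells from virus-caused growth loss, again on retest; inactive means the rest.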 Where a SMILES comes first, the peptide text is derived from it. [ ]: non-standard residue; d: D form. The star is where a group is joined. Phe(4-NO2) = N[CH](Cc1ccc([N+](=O)[O-])cc1)C(=O)O; Boc = CC(C)(C)OC(=O)*

System: CEM cells HIV-1 protection, formazan growth assay
Assay: NCI AIDS Antiviral Assay
Settings: for IC50: measured here: growth of uninfected CEM cells
How it was run: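 Category rules: moderately active means at least 50% protection on retest, and confirmed active means 100% protection reproducibly. The underlying data came from a formazan growth assay in HIV-1-infected CEM cells.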

| SMILES | EC50 | IC50 | outcome |
| --- | --- | --- | --- |
| Nn1nnc2ccccc21 | > 200 µM | > 200 µM |  |
| CC(C)(C)OC(=O)NC(Cc1ccccc1)C(=S)N1CCCC1 (stereo not drawn) | 56.2 µM | 141 µM |  |
| [N-]=[N+]=NCC(CO)OCn1cc(Cc2cccc(OCc3ccccc3)c2)c(=O)[nH]c1=O (stereo not drawn) |  |  | inactive |
| CCOC(=O)c1cc(=O)n(C)c(=O)n1C |  |  | inactive |
| CCOC(=O)/C(=C\c1cccc([N+](=O)[O-])c1)[Se]c1ccccc1 | > 26.3 µM | 10.7 µM |  |
| CC(Oc1ccc2cc(C(=O)c3ccccc3)c(=O)oc2c1)C(=O)O (stereo not drawn) |  |  | inactive |
| Cc1nc2nn[nH]n2c(=O)c1CCO | > 200 µM | > 200 µM |  |
| O=C(O)Cn1c[n+](NC(=O)Cc2ccccc2)cn1 | > 200 µM | > 200 µM |  |
| C=CCCNCC/C=C\[Si](C)(C)C | > 1260 µM | 1230 µM |  |
| Cc1nn(C(=O)c2ccccc2O)c2c1C(c1ccc([N+](=O)[O-])cc1)SC(N)=N2 (stereo not drawn) | > 2 µM | 0.389 µM |  |
| O=S(=O)(CCC[C@H]1[C@@H](CCOCc2ccccc2)C2CCCN1O2)c1ccccc1 (stereo partly drawn) | > 200 µM | 95.5 µM |  |
| O=C(NC1C=Nc2ccc(Cl)cc2NC1=O)c1ccccc1Cl (stereo not drawn) | > 200 µM | 123 µM |  |
| NNC(=S)NCCNC(=S)NN | > 200 µM | > 200 µM |  |
| O=S(=O)(O)c1cc(S(=O)(=O)O)c2c(Nc3ccnc4ccccc34)ccc(S(=O)(=O)O)c2c1 | > 200 µM | > 200 µM |  |
| Nc1ncnc2c1C=C(B(O)O)B(O)N2 | > 126 µM | 74.1 µM |  |
| O=C1NC(=O)C(CCSSCCC2NC(=O)NC2=O)N1 (stereo not drawn) | > 200 µM | > 200 µM |  |
| CC(NC(=O)OC(C)(C)C)C(=O)NC(Cc1ccccc1)C(=O)NCC(=O)O (stereo not drawn) (Boc-Ala-Phe-Gly-OH; configuration not given here) | > 200 µM | > 200 µM |  |
| CN1CCCC1CCNc1nc(C(Cl)(Cl)Cl)nc2cc(Cl)ccc12 (stereo not drawn) | > 24.5 µM | 12.9 µM |  |
| CC(C)(C)c1ccc(O)c(C(O)c2cccnc2)c1 (stereo not drawn) | > 200 µM | 61.7 µM |  |
| COC(=O)[C@@H](O)[C@](O)(CCC(C)C)C(=O)O[C@@H]1C(OC)=C[C@]23CCCN2CCc2cc4c(cc2[C@H]13)OCO4 | > 245 µM | 0.575 µM |  |
| CC(=O)Oc1cc2c(n(C)c1=O)CCC2 | > 200 µM | 155 µM |  |
| O=C(Cc1ccccc1C(=O)O)c1ccccc1 | > 200 µM | > 200 µM |  |

| SMILES | EC50 | IC50 | outcome |
| --- | --- | --- | --- |
| O=c1onc(-c2ccccc2)c2ccccc12 | > 162 µM | > 162 µM |  |
| O=S(=O)(O)c1cccc2c(N=Nc3ccc(N=Nc4ccc(Nc5ccccc5)c5c(S(=O)(=O)O)cccc45)c4ccccc34)cccc12 | > 50.1 µM | 34.7 µM |  |
| Cc1ccccc1NC(=O)C(=O)C(c1cnc2ccc([N+](=O)[O-])cc2n1)[N+](=O)[O-] (stereo not drawn) | > 240 µM | 126 µM |  |
| Cn1c2ccccc2n2c3ncccc3c(=O)c(C#N)c12 | > 50.1 µM | 1.26 µM |  |
| Cc1ccc(-c2nc3n(c2/C=N\N=C(N)N)CCS3)cc1 | > 200 µM | 29.5 µM |  |
| CCOC(=O)N1CC2(C(=O)OC)C=CC1C(C(=O)OC)C2 (stereo not drawn) | > 200 µM | > 200 µM |  |
| O=C(O)c1ccc2c(c1)C(=O)c1ccccc1C2=O | > 200 µM | 97.7 µM |  |
| N=c1ccc2nc(N)nn(O)c-2c1 | > 200 µM | > 200 µM |  |
| COc1ccc2c(c1C)C(=O)C(O)(CC=C(C)C)O2 (stereo not drawn) | > 200 µM | 42.7 µM |  |
| Cc1cc(C)nc(NS(=O)(=O)c2ccc(NC(=O)c3ccc4nc5ccccc5c(Nc5ccc(S(=O)(=O)N=C(N)N)cc5)c4c3)cc2)n1 | 72.4 µM | 141 µM |  |
| COC1(CC[C@@H](C)COC2OC(CO)C(O)C(O)C2O)O[C@H]2C[C@H]3[C@@H]4CC=C5C[C@@H](OC6OC(CO)C(O)C(OC7OC(CO)C(O)C(O)C7O)C6OC6OC(C)C(O)C(O)C6O)CC[C@]5(C)[C@H]4CC[C@]3(C)[C@H]2[C@@H]1C (stereo partly drawn) | > 200 µM | 3.31 µM |  |
| Nc1cccc(S(=O)(=O)NCC(=O)O)c1 |  |  | inactive |
| C=CCCC[P+](c1ccccc1)(c1ccccc1)c1ccccc1 | > 200 µM | 1.15 µM |  |
| COc1cc2cc(C(=O)N3CC(CCl)c4ccc(NO)cc43)[nH]c2c(OC)c1OC (stereo not drawn) | > 2 µM | 1.82 µM |  |
| Clc1ccc2nc(-c3ccc(Cl)c(Cl)c3)cc(-c3ccccc3)c2c1 | > 200 µM | > 200 µM |  |
| Cc1cc(=O)[nH]c(CNC(=O)c2cccc(C(=O)NCc3cc(=O)[nH]c(C)n3)c2)n1 | > 617 µM | > 617 µM |  |
| CC(=O)O/N=C/c1cc2c(cc1Br)OCO2 | > 18.2 µM | > 18.2 µM |  |
| COc1ccc2cc1Oc1ccc(cc1)C[C@H]1NCCc3cc(OC)c(cc31)Oc1c(O)c(OC)cc3c1CCN(C)C3C2 (stereo partly drawn) |  |  | inactive |
| C1CN(P(N2CCOCC2)N2CCOCC2)CCO1 | > 871 µM | > 871 µM |  |
| COc1ccc(C(=C2C(=O)OC(=O)C2=C(C)C)c2ccc(OC)cc2)cc1 | > 200 µM | 95.5 µM |  |
| CCCCCCNCCCNc1c2cc(OC)ccc2nc2cccc([N+](=O)[O-])c12 | > 2 µM | 0.347 µM |  |
| CCCCCOCCCCCCCC(=O)OCC1OC(n2cc(C)c(=O)[nH]c2=O)CC1N=[N+]=[N-] (stereo not drawn) |  |  | active |

| SMILES | EC50 | IC50 | outcome |
| --- | --- | --- | --- |
| CC1C(n2[nH]c(=O)n(C)c2=O)c2ccccc2-n2c(=O)n(C)c(=O)n21 (stereo not drawn) | > 64.6 µM | > 64.6 µM |  |
| CCSc1nnc(CSc2nc(-c3ccccc3)c(-c3ccccc3)[nH]2)n1-c1ccccc1 | > 21.4 µM | > 21.4 µM |  |
| COC(=O)C(C(=O)C(=O)Nc1nc(=S)[nH][nH]1)c1csc(N)n1 (stereo not drawn) | > 724 µM | > 724 µM |  |
| O=C1CSc2ncccc2N1c1ccc([N+](=O)[O-])cn1 | > 200 µM | > 200 µM |  |
| COc1cc(/C=C/c2ccc(OC)c(OC)c2)cc(OC)c1 |  |  | inactive |
| CCOC(=O)/C(=C/c1cccc(Cl)c1)N(CC)CC | > 91.2 µM | > 91.2 µM |  |
| CC(NNC(=O)c1ccncc1)c1cccc(C(F)(F)F)c1 (stereo not drawn) | > 200 µM | 195 µM |  |
| O=C(c1ccc(O)c([N+](=O)[O-])c1)c1ccc(O)c([N+](=O)[O-])c1 | > 200 µM | 45.7 µM |  |
| Cc1cc(S(=O)(=O)Nc2nc(N)nc(N(C)C)n2)c(SCC(=O)O)cc1Cl | > 200 µM | > 200 µM |  |
| CC1CN=C(NS(=O)(=O)c2cc(C(=O)Nc3ccc(Cl)cc3)c(Cl)cc2S)NN1 (stereo not drawn) | > 200 µM | 14.8 µM |  |
| c1cnc2c(c1)ccc1cccnc12 | > 200 µM | 1.17 µM |  |
| Cc1nc2ccccc2c(=O)n1NC(=O)c1ccc(N)cc1 | > 200 µM | > 200 µM |  |
| COc1cc(-c2coc3cc(O)ccc3c2=O)c(O)c(OC)c1OC | > 200 µM | 72.4 µM |  |
| CN1C(=O)NC2(C1=O)C(=O)N(C)C(=O)N2C (stereo not drawn) | > 1100 µM | > 1100 µM |  |
| COC(=O)/C=C/c1c[nH]c2nccnc12 | > 166 µM | 53.7 µM |  |
| C=CCCC(=O)N1CCC(C(=O)OCC)C1=O (stereo not drawn) | > 200 µM | > 200 µM |  |
| Cc1cc(=O)n(-c2ccccc2)c(=O)o1 |  |  | inactive |
| Cc1ccc2c(c1)C(=O)CC1CC(=O)c3ccccc3C21 (stereo not drawn) | > 200 µM | > 200 µM |  |
| CCc1c(C)c2cc3[nH]c(cc4nc(cc5nc(cc1[nH]2)C(C)=C5CCC(=O)OC)C(CCC(=O)OC)=C4C)c(C)c3CC |  |  | inactive |
| COc1ccc(/C=C/C(=O)c2c(-c3ccccc3)nn(C)c(=O)c2N2CC2C)cc1 (stereo not drawn) | > 64.6 µM | 22.4 µM |  |
| COc1nc(NC2OCC(OC(C)=O)C(OC(C)=O)C2OC(C)=O)c(-c2csc(N)n2)c(=O)n1C (stereo not drawn) |  |  | inactive |
| CCOC(=O)C(=CNC(=S)c1cccnc1)C(=O)OCC | > 200 µM | 17.8 µM |  |

| SMILES | EC50 | IC50 | outcome |
| --- | --- | --- | --- |
| O=[N+]([O-])c1cccc(-c2oc(C=Nc3ccccc3)c([N+](=O)[O-])c2-c2cccc([N+](=O)[O-])c2)c1 | > 56.2 µM | > 56.2 µM |  |
| O=C(O)CN(CC(=O)O)C1CCCCC1N1CC(=O)OC(=O)C1 (stereo not drawn) | > 200 µM | 18.2 µM |  |
| COc1ccccc1Nc1nc(N)nc(N)c1N=O | > 200 µM | > 200 µM |  |
| CN1CCN(CCSc2nccc(-c3cc4ccccc4s3)n2)CC1 | > 126 µM | 31.6 µM |  |
| Cc1cc(Br)cc(C)c1NC(=O)C(=O)C(C(=O)c1ccc2ccccc2c1)C1OC(=O)c2ccccc21 (stereo not drawn) | > 64.6 µM | 12.9 µM |  |
| O=C1c2cn[nH]c2N=C(Nc2ccccc2)C1N=Cc1ccc([N+](=O)[O-])cc1 (stereo not drawn) | > 200 µM | 102 µM |  |
| CN1C(=O)C2C(=O)N(Cc3ccccc3)CC(=O)N2c2cccnc21 (stereo not drawn) | > 200 µM | > 200 µM |  |
| C[N+](C)(C)CC(=O)N/N=c1\cc(C(=O)Nc2ccc(N=O)cc2C#N)oc2cc(O)ccc12 | > 372 µM | > 372 µM |  |
| CCCCCCCCC(O)c1ccc(/C=C\C(O)CCCC(=O)O)s1 (stereo not drawn) | > 63.1 µM | > 63.1 µM |  |
| C/C(N=NS(=O)(=O)c1c(C)cc(C)cc1C)=C1\C=CC=CN1O |  |  | inactive |
| Cc1csc2c(P(=O)(OC(C)C)OC(C)C)c(-c3ccccc3)cn12 | > 200 µM | 33.1 µM |  |
| C#CCOCn1cnc2c(=O)[nH]cnc21 | > 331 µM | > 331 µM |  |
| CNC(=O)CCC(NC(=O)OC(C)(C)C)C(=O)NC(Cc1ccc([N+](=O)[O-])cc1)C(=O)NCC(=O)NC (stereo not drawn) (Boc-Glu(NHMe)-[Phe(4-NO2)]-Gly-NHMe; configuration not given here) | > 200 µM | > 200 µM |  |
| O=C1C2C(C(=O)N1Cc1ccccc1)N(Cc1ccccc1)C(=O)N2Cc1ccccc1 (stereo not drawn) | > 12.3 µM | > 12.3 µM |  |
| O=C1C(=O)N(C2CCCCC2)C(=S)N1C1CCCCC1 | > 200 µM | > 200 µM |  |
| CCC(C)C(NC(=O)C(N)CCCCN)C(=O)NC(CCC(=O)O)C(=O)NC(CO)C(=O)NC(C(=O)O)C(C)O (stereo not drawn) (H-KIEST-OH; configuration not given here) |  |  | inactive |
| Cn1c(=O)c2nc3c(=O)n(C)c(=O)n(CC(N)=O)c3nc2n(C)c1=O | > 200 µM | > 200 µM |  |
| COC(=O)C1CC=C(SC(=O)c2ccccc2)N1C(=O)c1ccccc1 (stereo not drawn) | > 200 µM | > 200 µM |  |
| Cc1cc2c(cc1Cl)SC(NNC1=NCCN1)=NS2(=O)=O | > 200 µM | 115 µM |  |
